Measurements reported in paper PMC8834506, “Optimization of Thymidine Kinase-Based Safety Switch for Neural Cell Therapy” (Cells, 2022).

Experiments:
[1] = test system: hESC (HS420) expressing Ki67-30-GMK; assay: ATP-based cell survival assay, GCV-induced cell death; conditions: Homo sapiens, 96 h, read-out: EC50 of GCV (cell survival)
Protocol: (§1) Our first generation of suicide gene was engineered with the wild type thymidine kinase (wt-TK). To improve the suicide gene efficacy, we investigated different TK variants; wt-TK, 30-GMK, SR39, SR39h, and SR39h D116E variants. These sequences were chosen based on the analysis of the literature investigating HSV1-TK variants, as well as a gain of function mutation in the CMV UL-97 kinase. The efficacy of each variants was determined as percentage of cell survival following prodrug treatment compared to non-treated hESC. For this purpose, we used the ATP-based assay, which measures cellular ATP content and thereby provides a reliable estimate of the number of healthy cells. […]
(§2) Figure 1 EC50 of ganciclovir (GCV) in cell expressing different thymidine kinase (TK) variants. […] Number of surviving cells was monitored using bioluminescent ATP-based assay. […]
(§3) Cell culture plate (96 wells plate Corning #3907, Corning, Lonay, Switzerland) were pre-coated with 60 μL per well of Poly-L-ornithine solution (Sigma, Merk, Eysins, Switzerland) at 37 °C for 30 min. […] For EC50 assays, the medium was changed daily for 4 days, then cell viability was assessed using an ATP-based assay. EC50 values for each construct were calculated using a four parameters equation (GraphPad, Prism8, San Diego, CA, USA). […]

[2] = test system: hESC (HS420) expressing Ki67-wt-TK; assay: as above; conditions: Homo sapiens; 96 h GCV exposure; wt-TK under Ki67 promoter
Protocol: as §1, §2, §3

[3] = test system: host cell DNA; conditions: cited from earlier work

## Nc1nc(O)c2ncn(COC(CO)CO)c2n1 [GCV, ganciclovir]
[1]
  EC50: 0.11 µM
[2]
  EC50: 0.096 µM
[3]
  Fragmentation of host cell DNA: induce fragmentation of host cell DNA
